This note sets out measurements from paper PMC9826610 (Journal of medicinal chemistry, 2022).

Data set [1] has as its system methicillin-resistant S. aureus (FPR3757). As to the kind of experiment: MIC against methicillin-resistant S. aureus. It is filed as cell-based, Staphylococcus aureus. Particulars: for MIC: complete inhibition of observable growth, Mueller–Hinton broth.
For data set [2], the system named is MRSA. Description: MRSA MIC in the presence of serum. In kind it is cell-based. The conditions noted are these: Staphylococcus aureus.
Data set [3] has as its system S. aureus (strain USA300). Description: Transmission electron microscopy of treated MRSA. Particulars: 1× MIC. In kind it is cell-based.
The test system of data set [4] is sheep erythrocytes. The conditions noted are these: washed sheep erythrocytes; at 32 μg/mL; compared to Triton X-100 (100% lysis).
For data set [5], the system named is C. albicans. As to the kind of experiment: Antimicrobial susceptibility panel: MIC against C. albicans. In kind it is cell-based. Particulars: Candida albicans, SC5314.
The nature of data set [6]: Single-dose in vivo pharmacokinetics. Particulars: mice.
The nature of data set [7]: Kinetic aqueous solubility by LC-MS/MS. The conditions noted are these: pH 7.4.
The test system of data set [8] is S. aureus (strain COL). As to the kind of experiment: Fluorescence microscopy of membrane, cell wall and DNA in MRSA. In kind it is cell-based. The conditions noted are these: 1× MIC, 30 min.

The structures appear in SMILES notation. In brackets after ≈: the same amount, converted by molar mass. Where two headings read alike, the source gives them in different places. A value given as a limit tells only on which side of the number the result lay.

The compound `O=c1cc(C(F)(F)F)[nH]c2cc(C(F)(F)F)ccc12` [Compound 2, 2,7-Bis-(trifluoromethyl)quinolin-4-ol] had an MIC in data set [1] (Staphylococcus aureus) of 4 to 8 µg/mL (≈ 14.2 to 28.5 µM).

In data set [1] (Staphylococcus aureus), `Oc1cc(C(F)(F)F)nc2cc(OC(F)(F)F)ccc12` [Compound 3] gave an MIC of 4 to 8 µg/mL (≈ 13.5 to 26.9 µM).

Take `Oc1cc(C(F)(F)F)nc2c(C(F)(F)F)cccc12` [Compound 4]: the MIC in data set [1] (Staphylococcus aureus) fell in the range of 2 to 4 µg/mL (≈ 7.11 to 14.2 µM).

As for `CCc1ccc2c(O)cc(C(F)(F)F)nc2c1` [Compound 8], the minimum inhibitory concentration (MIC) in data set [1] (Staphylococcus aureus) is 320 to 640 µg/mL (≈ 1330 to 2650 µM).

As for `COc1ccc2c(O)cc(C(F)(F)F)nc2c1` [Compound 9], the MIC in data set [1] (Staphylococcus aureus) was in the range of 320 to 640 µg/mL (≈ 1320 to 2630 µM).

As to `CSc1ccc2c(O)cc(C(F)(F)F)nc2c1` [Compound 10], the MIC in data set [1] (Staphylococcus aureus) lay in the range of 320 to 640 µg/mL (≈ 1230 to 2470 µM).

`FC(F)(F)c1ccc2c(Nc3cccc(Cl)c3)cc(C(F)(F)F)nc2c1` [Compound 16]: the MIC in data set [1] (Staphylococcus aureus) fell in the range of 0.125 to 0.25 µg/mL (≈ 0.32 to 0.64 µM).

Regarding `FC(F)(F)c1ccc2c(Nc3ccc(Cl)cc3)cc(C(F)(F)F)nc2c1` [Compound 17], the MIC in data set [1] (Staphylococcus aureus) is 0.125 to 0.25 µg/mL (≈ 0.32 to 0.64 µM).

In the case of `Fc1cccc(Nc2cc(C(F)(F)F)nc3cc(C(F)(F)F)ccc23)c1` [Compound 18], in data set [1] (Staphylococcus aureus), the MIC was in the range of 4 to 16 µg/mL (≈ 10.7 to 42.8 µM).

`Fc1ccc(Nc2cc(C(F)(F)F)nc3cc(C(F)(F)F)ccc23)cc1F` [Compound 21] returned an MIC in data set [1] (Staphylococcus aureus) of 0.125 to 0.25 µg/mL (≈ 0.319 to 0.637 µM).

Turning to `CSc1cccc(Nc2cc(C(F)(F)F)nc3cc(C(F)(F)F)ccc23)c1` [Compound 24], the MIC in data set [1] (Staphylococcus aureus) is 0.25 to 0.5 µg/mL (≈ 0.621 to 1.24 µM).

In the case of `FC(F)(F)c1ccc(Nc2cc(C(F)(F)F)nc3cc(C(F)(F)F)ccc23)nc1` [Compound 31, 2,7-Bis(trifluoromethyl)-4-[5-(trifluoromethyl)pyridin-2-yl-amino]quinoline], the MIC in data set [2] (read-out: MIC + 10% FBS) lay in the range of 4 to 8 µg/mL. In addition, the “cell morphology by TEM” value in data set [3] is “mesosome-like membrane inclusions”.

`FC(F)(F)Oc1ccc2c(Nc3ccc(Cl)c(Cl)c3)cc(C(F)(F)F)nc2c1` [Compound 32] returned an MIC in data set [1] (Staphylococcus aureus) of 0.5 to 1 µg/mL (≈ 1.13 to 2.27 µM).

As to `FC(F)(F)Oc1cccc(Nc2cc(C(F)(F)F)nc3cc(OC(F)(F)F)ccc23)c1` [Compound 33], the MIC in data set [1] (Staphylococcus aureus) is 0.5 to 1 µg/mL (≈ 1.1 to 2.19 µM).

As to `FC(F)(F)Oc1ccc2c(Nc3ccc(C(F)(F)F)cn3)cc(C(F)(F)F)nc2c1` [Compound 34], in data set [1] (Staphylococcus aureus), the MIC fell in the range of 0.5 to 1 µg/mL (≈ 1.13 to 2.27 µM).

Regarding `FC(F)(F)c1ccc2c(Nc3cc(Cl)ccn3)cc(C(F)(F)F)nc2c1` [Compound 48], the “loss of activity (MIC) relative to 31” value in data set [1] was 8 fold.

Take `FC(F)(F)c1ccc2c(Nc3ccc(C(F)(F)F)nc3)cc(C(F)(F)F)nc2c1` [Compound 49]: the MIC entry in data set [1] is “completely abolished activity”.

Compound `FC(F)(F)c1ccc2c(Nc3nccs3)cc(C(F)(F)F)nc2c1` [Compound 55] returned an MIC in data set [1] (Staphylococcus aureus) of 1 to 2 µg/mL (≈ 2.75 to 5.51 µM).

The compound `Fc1ccc2c(Nc3ccc(Cl)c(Cl)c3)cc(C(F)(F)F)nc2c1` [Compound 74] displayed an MIC in data set [1] (Staphylococcus aureus) of 0.5 to 2 µg/mL (≈ 1.33 to 5.33 µM).

In data set [1] (Staphylococcus aureus), `Fc1ccc2c(Nc3ccc(C(F)(F)F)cn3)cc(C(F)(F)F)nc2c1` [Compound 76] returned an MIC of 0.5 to 2 µg/mL (≈ 1.33 to 5.33 µM).

`Fc1ccc2nc(C(F)(F)F)cc(Nc3ccc(C(F)(F)F)cn3)c2c1F` [Compound 77]: in data set [1] (Staphylococcus aureus), the MIC was 16 to 32 µg/mL (≈ 40.7 to 81.4 µM).

Take `Fc1cc2nc(C(F)(F)F)cc(Nc3ccc(C(F)(F)F)cn3)c2cc1F` [Compound 78]: the hemolysis entry in data set [4] was “hemolysis”.

For the compound `Fc1ccc(Nc2nc(C(F)(F)F)nc3nc(C(F)(F)F)ccc23)cc1F` [Compound 94, N-(3,4-Difluorophenyl)-2,7-bis(trifluoromethyl)pyrido[2,3-d]-pyrimidin-4-amine], in data set [1] (Staphylococcus aureus), the MIC is ≥ 32 µg/mL.

With `FC(F)(F)c1ccc(Nc2cc(N3CCNCC3)nc3cc(C(F)(F)F)ccc23)nc1` [Compound 105, 2-(Piperazin-1-yl)-7-(trifluoromethyl)-4-{[5-(trifluoro-methyl)-pyridin-2-yl]amino}quinoline], the MIC in data set [1] (Staphylococcus aureus) lay within 0.5 to 1 µg/mL (≈ 1.13 to 2.27 µM); in data set [1], 0.5 to 1 µg/mL.

In data set [1] (Staphylococcus aureus), `FC(F)(F)c1ccc(Nc2cc(N3CCNCC3)c3ccc(C(F)(F)F)cc3n2)nc1` [Compound 106] registered an MIC of 4 to 8 µg/mL (≈ 9.06 to 18.1 µM).

Take `FC(F)(F)c1ccc(Nc2cc(N3CCOCC3)c3ccc(C(F)(F)F)cc3n2)nc1` [Compound 108]: the MIC in data set [1] (Staphylococcus aureus) lay within 4 to 8 µg/mL (≈ 9.04 to 18.1 µM).

Consider `O=c1cc(C(F)(F)F)[nH]c2cc(C(F)(F)F)cc(Nc3ccc(C(F)(F)F)cn3)c12` [Compound 111, 5-[(5-Trifluoromethylpyridin-2-yl)amino]-2,7-bis-(trifluoromethyl)quinolin-4(1H)-one], for which the MIC in data set [2] (read-out: MIC + 10% human serum) is 4 to 8 µg/mL; in data set [2] (read-out: MIC + 10% mouse serum), 4 to 8 µg/mL; in data set [2] (read-out: MIC + 30% FBS) it was 4 to 8 µg/mL; in data set [5], 256 µg/mL (≈ 580 µM). Further, the “time total plasma concentrations stay above the MIC (<0.0625 μg/mL)” value in data set [6] (following i.v. dosing at 0.5 mg/kg) and in data set [6] (following oral dosing at 10 mg/kg) was ~9 h in each case. The hemolysis entry in data set [4] is on record as “devoid of hemolytic activity”. The solubility at 6 h in data set [7] amounted to 2.4 ± 0.4 ng/mL (≈ 0.00544 µM). Further, in data set [3], the “cell morphology by TEM” value is “mesosome-like membrane inclusions”.

In the case of `O=c1cc(C(F)(F)F)[nH]c2cc(C(F)(F)F)cc(Nc3ccc(F)cn3)c12` [Compound 114], the MIC in data set [1] (Staphylococcus aureus) lay within 0.125 to 2 µg/mL (≈ 0.319 to 5.11 µM).

As for `O=c1cc(C(F)(F)F)[nH]c2cc(C(F)(F)F)cc(N[C@H]3CC[C@H](C(F)(F)F)CC3)c12` [Compound 120], in data set [8], the “FM 4–64 membrane staining by fluorescence microscopy” value is listed as “membrane defects”. The “cell morphology by TEM” value in data set [3] is on record as “mesosome-like membrane inclusions”.

Turning to `O=c1cc(C(F)(F)F)[nH]c2cc(F)cc(Nc3ccc(C(F)(F)F)cn3)c12` [Compound 122], the “FM 4–64 membrane staining by fluorescence microscopy” value in data set [8] was “membrane defects”.
